These results are taken from patent US4341756A, “Novel amino-dioxepane intermediates for the synthesis of new non-ionic contrast media” (The Regents of the University of California, priority 1980, dated 1982).

The nature of series [1]: Viscosity. In kind it is physicochemical. The conditions noted are these: 37° C., 300 mgI/ml. An excerpt:
(§1) This compound was synthesized as described for the hydroxyacetyl analog (VIIIb). The product was obtained in 69% yield as a colorless glassy solid.

Series [2] concerns rats. Briefly: Neurotoxicity: neural deficits after intracisternal injections in rats. The conditions noted are these: for Deficit Scores: average of 10 rats, 0 = normal; for Neural deficits: rats. It is filed as in vivo. On the procedure:
(§2) Employing conventional procedures, the following tests were carried out and compared with known commercially available contrast media. The following tables indicate the results.
tions in rats with chronically implanted
cannulas into the right ventricle.
Deficit scores were calculated on the basis of a preset rating (average o

A short description of series [3]: Water solubility. In kind it is physicochemical. The conditions noted are these: at 20° C.
Source text: as §1

Series [4] concerns Blepharisma americ. Briefly: Cell Toxicity: LD50 at 4' of a standardized culture of a protozoan. In kind it is cell-based. The conditions noted are these: for LD50: at 4', standardized culture of Blepharisma americ. The method, then: as §2
(LD50 at 4' of a standardized culture of a
protozoan Blepharisma americ.)

Series [5] relates to mice. Briefly: Systemic Toxicity: LD50 of compound injected intravenously in mice. It is filed as in vivo. The conditions noted are these: intravenous, groups of 10 mice. On the procedure:
as §2
LD50 (gI/kg bw) of compound injected
intravenously in groups of 10 mice.

The test system of series [6] is rats. Nature of the series: Aversive conditioning in rats (preference/avoidance after injection into the lateral ventricle). It is filed as in vivo. The conditions noted are these: for Aversion expressed in relation to Metrizamide: Metrizamide = 1; for % Aversion: injection into the lateral ventricle, average from a group of 10 rats. The method, then: as §2
Aversive conditioning in rats: (Test-
ing for preference/avoidance after an injection
into the lateral ventricle via a chronically im-
planted cannula) (Average from a group of 10 rats)

As to `CC(O)C(=O)Nc1c(I)c(C(=O)NC(CO)C(O)CO)c(I)c(C(=O)NC(CO)C(O)CO)c1I` (racemic) [VIIIc, 2,4,6-triiodo-5-(2-DL or L-hydroxypropionylamino)-isophthalic acid-bis-N,N'-(1,3,4-trihydroxy-threo-but-2-yl)-amide], the viscosity in series [1] came out at 6.6 cps. Besides, the “Deficit Scores” value in series [2] (40 mg I) is reported as 0; in series [2] (60 mg I), 3.0 ± 1.73; in series [2] (100 mg I), 26 ± 3.2. Moreover, the “Neural deficits” value in series [2] (40 mg I) is “Normal”. In series [3], the solubility in water is on record as above 400 mgI/ml. For the same molecule, the LD50 in series [4] was 148 mg I/ml; in series [5] it was 21.3 gI/kg bw. In addition, the “Conclusion on toxicity” value in series [4] (compared with Iopamidol and Metrizamide) was “lower toxicity than Iopamidol and Metrizamide”. For the same molecule, the “Aversion expressed in relation to Metrizamide” value (“Aversion expressed in relation” below) in series [6] came out at 3.4 times less aversive. Further, in series [6], the “% Aversion” value worked out at 9.4%.

Regarding `C[C@H](O)C(=O)Nc1c(I)c(C(=O)NC(CO)CO)c(I)c(C(=O)NC(CO)CO)c1I` [Iopamidol, N,N'-di(1',3'-dihydroxypropyl-2') 5-L-lactoylamido triiodoisophthaldiamide, reference compound], the “Deficit Scores” value in series [2] (40 mg I) turned out to be 1.75 ± 0.96; in series [2] (60 mg I), 22.0. The “Neural deficits” value in series [2] (100 mg I) is on record as “Death”. Also, the LD50 was 136 mg I/ml in series [4] and 18.7 gI/kg bw in series [5]. In series [6], the “Aversion expressed in relation” value stood at 1.2 times less aversive. The “% Aversion” value in series [6] is 24.6%.

For the molecule `CC(=O)Nc1c(I)c(C(=O)N[C@H]2C(O)O[C@H](CO)[C@@H](O)[C@@H]2O)c(I)c(N(C)C(C)=O)c1I` (stereo partly shown) [Metrizamide, 3-acetamido-5-(N-methylacetamido) triiodobenzoyl derivative of glucosamine, reference compound], the “Deficit Scores” value in series [2] (40 mg I) stood at 25.3 ± 10.1; in series [2] (60 mg I), 84.2 ± 12.3. Besides, the “Neural deficits” value in series [2] (100 mg I) was “Death”. Also, the LD50 in series [4] turned out to be 133 mg I/ml; in series [5], 12.1 gI/kg bw. The “Aversion expressed in relation” value in series [6] stood at 1 times less aversive. In addition, in series [6], the “% Aversion” value worked out at 29.8%.

Turning to `CN(C(=O)CC(=O)N(C)c1c(I)c(C(=O)NC(CO)C(O)CO)c(I)c(C(=O)NC(CO)C(O)CO)c1I)c1c(I)c(C(=O)NC(CO)C(O)CO)c(I)c(C(=O)NC(CO)C(O)CO)c1I` (stereo not drawn) [XVIII, N,N'-bis-Methyl-N,N'-bis [2,4,5-triiodo-3,5-bis-{N,N'-(1,3,4-trihydroxy-threo-but-2-yl)}-carbamoylphenyl]malondiamide], the “Deficit Scores” value in series [2] (40 mg I), in series [2] (60 mg I) and in series [2] (100 mg I) was 0 in each case. The “Neural deficits” value in series [2] (40 mg I), in series [2] (60 mg I) and in series [2] (100 mg I) was “Normal” in each case.
